# Test results reported in US9175305B2, “Mutant hydroxyphenylpyruvate dioxygenase polypeptides and methods of use” (Syngenta Participations AG, priority 2009, dated 2015).
# Legend:
# [1] = test system: E. coli BL21 cells expressing HPPD SEQ ID NO:24; format: cell-based; details: 20 ppm sulcotrione (data not shown)
# Experimental: (§1) Cells were grown from a 10% starting inoculum into 0.5 ml of L-broth containing 50 μg of kanamycin ml^−1 in […] for 48-96 h at 15° C. Typically pyomelanin colour in the medium was read (at 430 nm) after ˜72 h.
# [2] = test system: E. coli cells expressing mutant G408A; details: 25 ppm sulcotrione
# Experimental: as §1
# [3] = test system: HPPD SEQ ID NO:26; assay: biochemical; format: binding, Avena sativa; details: off rate, FIGS. 4A-4C
# Experimental: On rates (governed by an association rate constant, kon) for the formation of the enzyme: inhibitor complexes, EI and off rates (governed by a dissociation rate constant, koff) were determined by methods known in the art and essentially as described in Hawkes et al. (2001) Proc. Bright. Crop. Prot. Conf. Weeds, 2:563-568 and in PCT Patent App. Pub. No. WO 02/46387).
# For example, on rates were measured by, at zero time, adding ˜60 pmoles HPPD to 50 mM BisTrisPropane buffer at pH7.0 and at 25° C. containing 25 mM Na ascorbate, 4 μg/ml bovine catalase (Sigma, St. Louis, Mo.) and an excess (˜300 pmoles) of ^14C inhibitor in a total assay volume of 425 μl and, at various time points (0-180 s), quenching the radiolabel binding reaction by addition and rapid mixing of 100 μl ‘cold’ 1 mM structure A. Protein samples quenched at different times were then exchanged into 50 mM BisTrisPropane buffer at pH 7.0 containing 0.1M KCl by rapid chromatography down a NAP5 G25 Sephadex column (GE Healthcare Ltd, Buckinghamshire UK) and the amount of ^14C bound to protein fractions quantified in Optiphase scintillant using a Tri-Carb 2900TR scintillation counter (Perkin Elmer, Wellesley, Mass.). The data were fit according to the scheme below in order to derive the value of the apparent second order rate constant, k2, governing the association rate of enzyme and radiolabelled inhibitor. […]
# [4] = test system: G408A mutant of HPPD SEQ ID NO:14; assay: time course of inhibition of enzyme activity; format: biochemical, Avena sativa
# [5] = test system: control SEQ ID NO:14 HPPD; assay: time course of inhibition of enzyme activity, control enzyme; format: biochemical, Avena sativa; details: artifact of the method due to fast off rate during the 150 s assay
# [6] = test system: tobacco plants expressing HPPD SEQ ID NO:14; assay: herbicide spray test on transgenic tobacco; format: in vivo; details: 13 DAT
# [7] = test system: tobacco plants expressing HPPD SEQ ID NO:24; assay: herbicide spray test on transgenic tobacco; format: in vivo; details: 13 DAT
# [8] = test system: soybean event 1 (vector 15764) expressing SEQ ID NO:14; assay: herbicide spray test on soybean events; format: in vivo; details: event 1/SEQ#14, V2 growth stage, 14 DAT, average of n=7
# Excerpt: (§2) Each data point represents the average damage score from n=7 replicates.
# (§3) These events were used to compare the performance of five 17147 events. Four of these, SF, S8, S7 and S3 had not been preselected for tolerance level (other than to confirm resistance, non-chimerical nature and the presence of the gene) while the remaining event, T0, had been preselected as the most resistant out of five 17147 events in a preliminary field test.
# (§4) Plants were in 4×4×4 inch plastic pots and grown under a 15/9 hour light regime (daylight supplemented by artificial light in greenhouses) at a minimum night-time temperature of 18° C. and maximum daytime temperature of 27° C. Soil was regular VBRC mix (1:1 mixture of Vero field soil and Fafard Mix II) where Vero field soil is 98% sand and 2% clay. […] Spray volume was 150 L/ha and the damage scores reflect assessments at 14 DAT.
# [9] = test system: soybean event 2 (vector 15764) expressing SEQ ID NO:14; assay: herbicide spray test on soybean events; format: in vivo; details: event 2/SEQ#14, V2 growth stage, 14 DAT, average of n=7
# Excerpt: as §2, §3, §4
# [10] = test system: soybean event S3 (vector 17147) expressing SEQ ID NO:24; assay: herbicide spray test on soybean events; format: in vivo; details: event S3/SEQ#24, V2 growth stage, 14 DAT, average of n=7
# Excerpt: as §2, §3, §4
# [11] = test system: soybean event S7 (vector 17147) expressing SEQ ID NO:24; assay: herbicide spray test on soybean events; format: in vivo; details: event S7/SEQ#24, V2 growth stage, 14 DAT, average of n=7
# Excerpt: as §2, §3, §4
# [12] = test system: soybean event S8 (vector 17147) expressing SEQ ID NO:24; assay: herbicide spray test on soybean events; format: in vivo; details: event S8/SEQ#24, V2 growth stage, 14 DAT, average of n=7
# Excerpt: as §2, §3, §4
# [13] = test system: soybean event SF (vector 17147) expressing SEQ ID NO:24; assay: herbicide spray test on soybean events; format: in vivo; details: event SF/SEQ#24, V2 growth stage, 14 DAT, average of n=7
# Excerpt: as §2, §3, §4
# [14] = test system: soybean event T0 (vector 17147) expressing SEQ ID NO:24; assay: herbicide spray test on soybean events; format: in vivo; details: event T0/SEQ#24, V2 growth stage, 14 DAT, average of n=7
# Excerpt: as §2, §3, §4
# [15] = test system: Jack w/t; assay: herbicide spray test on soybean; format: in vivo; details: V2 growth stage, 14 DAT, average of n=7
# Experimental: as §2, §4
# [16] = 300 g/ha, smaller-sized population
# [17] = 500 g/ha, larger-sized population
structure (smiles),measurement,setting,value
"CS(=O)(=O)c1ccc(C(=O)C2C(=O)CCCC2=O)c(Cl)c1 [sulc, sulcotrione]",tolerance in pyomelanin assay,[1],enhanced tolerance
same,resistance in pyomelanin assay,[2],resistance relative to HPPD SEQ ID NO:14
"CS(=O)(=O)c1ccc(C(=O)C2C(=O)CCCC2=O)c([N+](=O)[O-])c1 [Structure B, mesotrione]",dissociation from HPPD SEQ ID NO:26 compared with HPPD SEQ ID NO:24,[3],about twice as fast
same,residual activity,"[4]; 0.6 μM B, enzyme about 75 nM, incubation up to 260 s, inhibition levelled off",about 35%
same,radiochemically determined off rate compared with control SEQ ID NO:14 HPPD,[4]; ice temperature,indistinguishable
same,extent of inhibition compared with the control enzyme,[4]; inhibitor at 0.15 or 0.6 μM,to a lesser extent
same,residual activity,[5],~8%
same,plants exhibiting visible herbicide damage (number of plants),[6]; [16],4 of 26
same,plants exhibiting damage,[6]; [17],27%
same,plants exhibiting visible herbicide damage (number of plants),[7]; [16],2 of 28
same,plants exhibiting symptoms of herbicide damage,[7]; [17],10%
same,plants exhibiting symptoms of herbicide damage (number of plants),[7]; [17],4 of 38
same,% dam.,[8]; B 420 g/ha,11.4%
same,% dam.,[8]; B 840 g/ha,9.3%
same,% dam.,[9]; B 420 g/ha,20.7%
same,% dam.,[9]; B 840 g/ha,22.1%
same,% dam.,[10]; B 420 g/ha,15.3%
same,% dam.,[10]; B 840 g/ha,15.3%
same,% dam.,[11]; B 420 g/ha,10.6%
same,% dam.,[11]; B 840 g/ha,6.9%
same,% dam.,[12]; B 420 g/ha,18.6%
same,% dam.,[12]; B 840 g/ha,19.3%
same,% dam.,[13]; B 420 g/ha,15.7%
same,% dam.,[13]; B 840 g/ha,25%
same,% dam.,[14]; B 420 g/ha,8.3%
same,% dam.,[14]; B 840 g/ha,5.3%
same,% dam.,[15]; B 420 g/ha,82.9%
same,% dam.,[15]; B 840 g/ha,83.6%
